Source: patent publication US20240216413A1, “THIONUCLEOSIDES AS ANTIVIRAL AGENTS” (priority 2021, published 2024)
Where two headings read alike, the source gives them in different places.

Assays:
SARS-CoV-2 [1] = experiment: Anti-SARS-CoV-2 activity (Vero); type: cell-based; conditions: Severe acute respiratory syndrome coronavirus 2, MOI 0.1, 48 hr
SARS-CoV-2 [2] = experiment: Anti-SARS-CoV-2 activity (Calu3); type: cell-based
[3] = Cytotoxicity in PBM cells; type: cell-based; conditions: human
Description: (§1) The toxicity of the compounds was assessed in Vero, human PBM, CEM (human lymphoblastoid), MT-2, and HepG2 cells, as described previously (see Schinazi R. F., Sommadossi J.-P., Saalmann V., Cannon D. L., Xie M.-Y., Hart G. C., Smith G. A. & Hahn E. F. Antimicrob. Agents Chemother. 1990, 34, 1061-67). Cycloheximide was included as positive cytotoxic control, and untreated cells exposed to solvent were included as negative controls. The cytotoxicity IC50 or CC50 was obtained from the concentration-response curve using the median effective method described previously (see Chou T.-C. & Talalay P. Adv. Enzyme Regul. 1984, 22, 27-55; Belen'kii M. S. & Schinazi R. F. Antiviral Res. 1994, 25, 1-11).

[4] = Cytotoxicity in Huh7 cells; type: cell-based; conditions: human
[5] = Cytotoxicity in Vero cells; conditions: African green monkey, Vero cells (kidney)
[6] = Cytotoxicity in CEM cells; type: cell-based; conditions: human, CEM lymphoblastoid cells
Description: as §1

SARS-CoV-2 [7] = experiment: Anti-SARS-CoV-2 activity, 3D primary culture (HAE-ALI); type: cell-based; conditions: Severe acute respiratory syndrome coronavirus 2, air-liquid interface
SARS-CoV-2 [8] = experiment: Anti-SARS-CoV-2 activity, 3D primary culture (Organoids); type: cell-based
HCoV-OC43 = experiment: Anti-HCoV-OC43 activity; type: cell-based
Omicron [9] = experiment: Anti-Omicron activity (Calu-3); type: cell-based, SARS-CoV-2
in vitro [10] = conditions: human
in vitro [11] = conditions: human, Caco-2
SARS-CoV-2 [12] = experiment: Anti-SARS-CoV-2 activity (Caco2); conditions: Severe acute respiratory syndrome coronavirus 2, Caco-2, 72 h; for EC50: read-out: Anti-SARS-CoV-2 Activity (Caco2) EC50
Omicron [13] = experiment: microbe, parasite or virus in culture; conditions: for EC90: Severe acute respiratory syndrome coronavirus 2, Caco-2, read-out: Anti-Omicron Activity (Caco-2) EC90
HepG2 cells = experiment: Mitochondrial toxicity in HepG2 cells (MtDNA / rDNA); conditions: Homo sapiens
[14] = test system: mitochondrial DNA (COXII gene); experiment: as above; conditions: human, HepG2 cells
[15] = test system: rDNA (rRNA gene, nuclear reference); experiment: as above; conditions: human, HepG2 cells
[16] = Severe acute respiratory syndrome coronavirus 2, Calu-3, Calu3, MOI 1.0, 72 hr
[17] = Severe acute respiratory syndrome coronavirus 2, Caco-2, read-out: Anti-Omicron Activity (Caco-2) EC50
[18] = Severe acute respiratory syndrome coronavirus 2, Omicron, Calu-3, read-out: Anti-Omicron Activity (Calu-3) EC50
[19] = Severe acute respiratory syndrome coronavirus 2, Omicron, Calu-3, read-out: Anti-Omicron Activity (Calu-3) EC90

In the case of `O=c1nc(NO)ccn1[C@@H]1S[C@H](CO)C(O)C1O` (stereo in doubt) [Compound 17, 1-((2R,3S,4R,5R)-3,4-dihydroxy-5-(hydroxymethyl)-tetrahydrothiophen-2-yl)-4-(hydroxyamino) pyrimidin-2(1H)-one], the EC50 (SARS-CoV-2 [1]) is reported as under 10 µM, the EC50 (SARS-CoV-2 [2]; [16]) is reported as under 10 µM and the CC50 [3] is reported as over 100 µM. For the same molecule, the CC50 [4] was over 100 µM and the CC50 [5] was over 100 µM.

`O=c1ccn([C@@H]2S[C@H](CO)[C@@H](O)[C@H]2O)c(=O)[nH]1` [Compound 8, 1-((2R,3R,4S,5R)-3,4-dihydroxy-5-(hydroxymethyl)tetrahydrothiophen-2-yl)pyrimidine-2,4(1H,3H)-dione] gave an EC50 (SARS-CoV-2 [1]) of 0.4 µM, an EC90 (SARS-CoV-2 [1]) of 0.8 µM and an EC90 (SARS-CoV-2 [2]; [16]) of 3.5 µM. The CC50 [3] was over 100 µM, the CC50 [6] was 20.5 µM and the CC50 [4] was over 100 µM. It also gave an EC50 (SARS-CoV-2 [7]) of 0.04 µM, an EC90 (SARS-CoV-2 [7]) of 0.1 µM and an EC50 (SARS-CoV-2 [8]; Severe acute respiratory syndrome coronavirus 2, 3D primary culture, organoids, read-out: Anti-SARS-CoV-2 Activity (Organoids) EC50) of 0.7 µM. It also gave an EC50 (HCoV-OC43; Betacoronavirus 1, OC43, read-out: Anti-HCoV-OC43 Activity EC50) of 2.2 to 2.5 µM, an EC90 (HCoV-OC43; Betacoronavirus 1, OC43, read-out: Anti-HCoV-OC43 Activity EC90) of 6.1 to 7.3 µM and an EC50 (Omicron [9]; Severe acute respiratory syndrome coronavirus 2, Calu-3, read-out: Anti-Omicron Activity (Calu-3) EC50) of 0.9 to 1.3 µM. It also gave an EC90 (Omicron [9]; Severe acute respiratory syndrome coronavirus 2, Calu-3, read-out: Anti-Omicron Activity (Calu-3) EC90) of 2.7 to 4.4 µM, a CC50 (in vitro [10]) of over 100 µM and a CC50 (in vitro [11]) of over 100 µM. The CC50 [5] was 68.3 µM, the EC50 (SARS-CoV-2 [12]) was 1.1 µM and the EC50 (Omicron [13]; [17]) was 8.2 µM. It also gave an EC90 (Omicron [13]) of over 10 µM, an inhibition at 100 µM (HepG2 cells; HepG2, read-out: inhibition of MtDNA at 100 μM) of under 1% and an inhibition at 100 µM (HepG2 cells; HepG2, read-out: inhibition of rDNA at 100 μM) of 36.3%. For the same molecule, the CC50 at 7 days [14] was over 100 µM and the CC50 at 7 days [15] was over 100 µM.

`Nc1ccn([C@@H]2S[C@H](CO)[C@@H](O)[C@H]2O)c(=O)n1` [Compound 9, 4-amino-1-((2R,3R,4S,5R)-3,4-dihydroxy-5-(hydroxymethyl)tetrahydrothiophen-2-yl)pyrimidin-2(1H)-one] showed an EC50 (SARS-CoV-2 [1]) of 0.2 µM, an EC90 (SARS-CoV-2 [1]) of 4.5 µM and an EC50 (SARS-CoV-2 [2]; [16]) of 1.9 µM. The EC90 (SARS-CoV-2 [2]; [16]) was 3.9 µM, the CC50 [3] was over 100 µM and the CC50 [6] was 28 µM. For the same molecule, the CC50 [4] was 93.1 µM, the CC50 [5] was 71.8 µM and the EC50 (SARS-CoV-2 [12]) was 4.9 µM. The EC90 (SARS-CoV-2 [12]; read-out: Anti-SARS-CoV-2 Activity (Caco2) EC90) was over 10 µM.

Work on `CC(C)OC(=O)[C@H](C)N[P@](=O)(OC[C@H]1S[C@@H](n2ccc(=O)[nH]c2=O)[C@H](O)[C@@H]1O)Oc1ccccc1` [Compound 13, Isopropyl ((S)-(((2R,3S,4R,5R)-5-(2,4-dioxo-3,4-dihydropyrimidin-1(2H)-yl)-3,4-dihydroxytetrahydrothiophen-2-yl)methoxy)(phenoxy)phosphoryl)-L-alaninate] yielded an EC50 (SARS-CoV-2 [1]) of over 10 µM, a CC50 [3] of over 100 µM and a CC50 [6] of over 100 µM. For the same molecule, the CC50 [4] was over 100 µM and the CC50 [5] was over 100 µM.

For `CC(C)OC(=O)[C@H](C)N[P@](=O)(OC[C@H]1S[C@@H](n2ccc(N)nc2=O)[C@H](O)[C@@H]1O)Oc1ccccc1` [Compound 16, Isopropyl ((S)-(((2R,3S,4R,5R)-5-(4-amino-2-oxopyrimidin-1(2H)-yl)-3,4-dihydroxytetrahydrothiophen-2-yl)methoxy)(phenoxy)phosphoryl)-L-alaninate], the EC50 (SARS-CoV-2 [1]) was over 10 µM, the CC50 [3] was over 100 µM and the CC50 [6] was over 100 µM. The CC50 [4] was over 100 µM and the CC50 [5] was over 100 µM.

`O=c1nc(NO)ccn1[C@@H]1O[C@H](CO)[C@@H](O)[C@H]1O` [NHC, N4-hydroxycytidine] gave a CC50 [6] of 2.6 µM, an EC50 (Omicron [9]; [18]) of 0.4 µM and an EC90 (Omicron [9]; [19]) of 1.2 µM. For the same molecule, the CC50 [5] was 16.5 µM, the EC50 (Omicron [13]; [17]) was over 10 µM and the EC50 (Omicron [13]; Severe acute respiratory syndrome coronavirus 2, Caco-2, read-out: Anti-Omicron Activity (Caco-2) EC50, value in parentheses) was 13.3 µM.

`CCC(CC)COC(=O)[C@H](C)N[P@](=O)(OC[C@H]1O[C@@](C#N)(c2ccc3c(N)ncnn23)[C@H](O)[C@@H]1O)Oc1ccccc1` [Remdesivir, reference compound] gave an EC50 (SARS-CoV-2 [2]; Severe acute respiratory syndrome coronavirus 2, Calu-3, 72 h) of 0.1 µM, a CC50 [3] of 6.4 µM and a CC50 [6] of 12 µM. The CC50 [4] was 1.5 µM, the EC50 (SARS-CoV-2 [7]) was 0.6 µM and the EC50 (SARS-CoV-2 [8]; Severe acute respiratory syndrome coronavirus 2, read-out: Anti-SARS-CoV-2 Activity (Organoids) EC50) was 0.7 µM. It also gave an EC90 (SARS-CoV-2 [8]; Severe acute respiratory syndrome coronavirus 2, 3D primary culture, organoids) of 1.5 µM, an EC50 (HCoV-OC43; Betacoronavirus 1, OC43; read-out: Anti-HCoV-OC43 Activity EC50) of 0.007 to 0.03 µM and an EC90 (HCoV-OC43; Betacoronavirus 1, OC43; read-out: Anti-HCoV-OC43 Activity EC90) of 0.03 to 0.08 µM. For the same molecule, the EC50 (Omicron [9]; [18]) was 0.2 to 0.3 µM, the EC90 (Omicron [9]; [19]) was 0.6 to 0.7 µM and the EC50 (Omicron [13]; [17]) was 0.05 µM. For the same molecule, the EC90 (Omicron [13]) was 0.4 µM.

`C[C@@H]1C[C@@H]([C@H](O)CC2CC(=O)NC(=O)C2)C(=O)[C@@H](C)C1` [cyclohexamide, Cycloheximide, reference compound] gave a CC50 (in vitro [10]) of 10 µM and a CC50 (in vitro [11]) of 10 µM.
